Test results reported in patent publication US11278555B2, “Combinational therapies for treatment of cancer comprising a bacteriochlorophyll derivative” (Yeda Research and Development Co. Ltd., priority 2016, dated 2022).

Columns and labels:
MB49 (bladder) tumors [1] = experiment: Systemic anti-tumor response in MB49 mice: second tumor (bilateral model) and tail vein re-challenge (Scheme 3); format: in vivo; conditions: for animals with growth of second tumor grafted at left hind leg 1 day post VTP (fraction): bilateral model, Gemzar 50 mg/kg
Procedure: • (i) Bacteriochlorophyll Derivatives—The Bchl derivatives and RGD-conjugates thereof were provided by Steba Biotech (Rehovot, Israel). […] Concentration was verified by spectrophotometric measurement. STL-7012 was provided as dipotassium salt. Working solution was prepared by dissolving STL-7012 K^+ salt in 5% mannitol solution (1 mg/ml). […] WST11 was supplied as a powder and kept in the dark at −20° C. Stock was prepared by dissolving WST11 in DDW containing 5% glucose and 0.67% mannitol, aliquoted and lyophilized. Working solution was reconstituted with DDW and the concentration of solution was confirmed spectrophotometrically. Alternatively, Clinical WST11 (batch: P00611, and 10-130611) was supplied as lyophilized formulation. Material was dissolved in 5% dextrose, aliquoted and stored at −20° C. At the day of treatment the aliquot was thawed, filtered and the concentration of solution was confirmed spectrophotometrically. • (ii) Chemotherapeutic drugs preparation and storage—Gemcitabine (GEM, Gemzar®, Lilly) was purchased from a local pharmacy as a powder, dissolved in saline to a concentration of 38 mg/ml, aliquoted and stored at −20° C. […] Cyclophosphamide (CTX, Endoxan®, Baxter Oncology Gmbh, Germany) was purchased from a local pharmacy. A stock solution of 20 mg/ml was prepared by dissolving in 0.9% NaCl, aliquoted and stored at −20° C. […] Whole body imaging of luciferase-transfected tumors and metastases were recorded five minutes following 75 mg Kg^−1 intraperitoneal (i.p.) injection of D-luciferin with respective filter sets. • (vi) PDT treatment protocol: 4T1-Luc cells were grafted in the mammary pad of Balb/c mice. […] Ablation of primary tumors was assessed every 7 days by imaging the tumor's luciferase-mediated bioluminescence signal, using IVIS. […]

[2] = tested on: CD11b+ cells, neutrophils/G-MDSC and monocytes/M-MDSC; experiment: Innate immune response (spleen CD11b+ IHC, FACS of MDSC) of mice bearing MB49 tumors; format: in vivo; conditions: for CD11b+ cells in the spleen (IHC): day 6 post VTP; for neutrophils/G-MDSC and monocytes/M-MDSC in splenocytic cells (FACS): day 9 post treatment, Gemzar 60 or 120 mg/kg
Procedure: • (i) Bacteriochlorophyll Derivatives—The Bchl derivatives and RGD-conjugates thereof were provided by Steba Biotech (Rehovot, Israel). […] Concentration was verified by spectrophotometric measurement. STL-7012 was provided as dipotassium salt. Working solution was prepared by dissolving STL-7012 K^+ salt in 5% mannitol solution (1 mg/ml). […] WST11 was supplied as a powder and kept in the dark at −20° C. Stock was prepared by dissolving WST11 in DDW containing 5% glucose and 0.67% mannitol, aliquoted and lyophilized. Working solution was reconstituted with DDW and the concentration of solution was confirmed spectrophotometrically. Alternatively, Clinical WST11 (batch: P00611, and 10-130611) was supplied as lyophilized formulation. Material was dissolved in 5% dextrose, aliquoted and stored at −20° C. At the day of treatment the aliquot was thawed, filtered and the concentration of solution was confirmed spectrophotometrically. • (ii) Chemotherapeutic drugs preparation and storage—Gemcitabine (GEM, Gemzar®, Lilly) was purchased from a local pharmacy as a powder, dissolved in saline to a concentration of 38 mg/ml, aliquoted and stored at −20° C. […] Cyclophosphamide (CTX, Endoxan®, Baxter Oncology Gmbh, Germany) was purchased from a local pharmacy. A stock solution of 20 mg/ml was prepared by dissolving in 0.9% NaCl, aliquoted and stored at −20° C. Aliquots were thawed, diluted with saline if needed to a desired concentration and used on the same day prepared at indicated doses. • (iii) Murine cell lines—Mammary luciferase (luc)-labeled 4T1 cell line (4T1-Luc) was a kind gift from Dr. Zvi Granot (Faculty of Medicine, The Hebrew University of Jerusalem, Israel); melanoma B16-F10 cell line was obtained from the American Type Culture Collection (ATCC, Manassas, Va.); bladder MB49 cell line was a kind gift from James Allison (MSKCC, New York, USA), and luc-labeled MB49-cell line was established using the murine stem cell virus (MSCV)-puromycin-luc-GFP construct (kindly provided by Dr. Emily Cheng, Human Oncology and Pathogenesis Program, MSKCC). 4T1 and MB49 cells were maintained in DMEM medium and B16-F10 cells in RPMI medium supplemented with 1 mmol/L sodium pyruvate, 10% fetal calf serum (FCS), 250 μg/ml hygromycin, 0.06 mg/ml penicillin and 0.1 mg/ml streptomycin. […] Whole body imaging of luciferase-transfected tumors and metastases were recorded five minutes following 75 mg Kg^−1 intraperitoneal (i.p.) injection of D-luciferin with respective filter sets. • (vi) PDT treatment protocol: 4T1-Luc cells were grafted in the mammary pad of Balb/c mice. […] Ablation of primary tumors was assessed every 7 days by imaging the tumor's luciferase-mediated bioluminescence signal, using IVIS. […]

[3] = Spleen weight of animals orthotopically grafted with 4T1 cancer cells; format: in vivo, mice; conditions: 1 and 3 weeks
From the text: FIG. 13 compares changes in the spleen weight of animals orthotopically grafted with 4T1 cancer cells and not treated (control) with tumor bearing animals that underwent Gemzar treatment, WST11 VTP treatment or their combination.

MB49 (bladder) tumors [4] = experiment: WST11 VTP and Gemzar in mice grafted with MB49 tumors (Scheme 2); format: in vivo; conditions: for animals cured (fraction): WST11 9 mg/kg VTP day 15 post grafting, Gemzar 50 mg/kg, 12 treatments/90 days; for cure / tumor progression: single treatment modalities
Procedure: • (i) Bacteriochlorophyll Derivatives—The Bchl derivatives and RGD-conjugates thereof were provided by Steba Biotech (Rehovot, Israel). […] Concentration was verified by spectrophotometric measurement. STL-7012 was provided as dipotassium salt. Working solution was prepared by dissolving STL-7012 K^+ salt in 5% mannitol solution (1 mg/ml). […] WST11 was supplied as a powder and kept in the dark at −20° C. Stock was prepared by dissolving WST11 in DDW containing 5% glucose and 0.67% mannitol, aliquoted and lyophilized. Working solution was reconstituted with DDW and the concentration of solution was confirmed spectrophotometrically. Alternatively, Clinical WST11 (batch: P00611, and 10-130611) was supplied as lyophilized formulation. Material was dissolved in 5% dextrose, aliquoted and stored at −20° C. At the day of treatment the aliquot was thawed, filtered and the concentration of solution was confirmed spectrophotometrically. • (ii) Chemotherapeutic drugs preparation and storage—Gemcitabine (GEM, Gemzar®, Lilly) was purchased from a local pharmacy as a powder, dissolved in saline to a concentration of 38 mg/ml, aliquoted and stored at −20° C. […] Cyclophosphamide (CTX, Endoxan®, Baxter Oncology Gmbh, Germany) was purchased from a local pharmacy. A stock solution of 20 mg/ml was prepared by dissolving in 0.9% NaCl, aliquoted and stored at −20° C. Aliquots were thawed, diluted with saline if needed to a desired concentration and used on the same day prepared at indicated doses. • (iii) Murine cell lines—Mammary luciferase (luc)-labeled 4T1 cell line (4T1-Luc) was a kind gift from Dr. Zvi Granot (Faculty of Medicine, The Hebrew University of Jerusalem, Israel); melanoma B16-F10 cell line was obtained from the American Type Culture Collection (ATCC, Manassas, Va.); bladder MB49 cell line was a kind gift from James Allison (MSKCC, New York, USA), and luc-labeled MB49-cell line was established using the murine stem cell virus (MSCV)-puromycin-luc-GFP construct (kindly provided by Dr. Emily Cheng, Human Oncology and Pathogenesis Program, MSKCC). 4T1 and MB49 cells were maintained in DMEM medium and B16-F10 cells in RPMI medium supplemented with 1 mmol/L sodium pyruvate, 10% fetal calf serum (FCS), 250 μg/ml hygromycin, 0.06 mg/ml penicillin and 0.1 mg/ml streptomycin. The cells were grown as monolayer at 37° C. in a humidified atmosphere (5% CO2, 95% air). • (iv) Murine tumor models—Female, Balb/c mice (6-8 week old) were grafted either subcutaneously (s.c.) into the right hind leg or orthotopically with 1×10^6 4T1 cells suspended in 50 or 1000 PBS. For the rechallenge study, 2×10^5 4T1 cells were orthotopically grafted. For bladder cancer model, 5×10^4 of MB49 or MB49-luciferase cell line were s.c. injected into the right flank of C57B/6 male mice (7-8 weeks old, Taconic, Hudson, N.Y.) 15 days prior to VTP treatment. For the efficacy study of VTP in immune compromised mice, the same number of MB49 cells was injected in the flank of Rag^−/− on C57B/6 background or C57B/6 male mice (7-8 week old, Jackson Laboratory, Bar Harbor, Me.). For bilateral model of MB49 cells, animals received 5×10^4 MB49 cells in the right flank and 5×10^4 cells in the left flank on days −15 and +1, respectively. All experimental procedures were approved by the Institutional Animal Care and Use Committee at the Weizmann Institute of Science (Rehovot, Israel) and The Memorial Sloan Kettering Cancer Center (MSKCC, New York, USA). […] Whole body imaging of luciferase-transfected tumors and metastases were recorded five minutes following 75 mg Kg^−1 intraperitoneal (i.p.) injection of D-luciferin with respective filter sets. • (vi) PDT treatment protocol: 4T1-Luc cells were grafted in the mammary pad of Balb/c mice. […] During the first two post-treatment days, the mice received analgesia (2.5 mg/kg Flunexin, once daily). Ablation of primary tumors was assessed every 7 days by imaging the tumor's luciferase-mediated bioluminescence signal, using IVIS. […]

Structure (SMILES) | animals with growth of second tumor grafted at left hind leg 1 day post VTP (fraction) (MB49 (bladder) tumors [1]) | CD11b+ cells in the spleen (IHC) [2] | neutrophils/G-MDSC and monocytes/M-MDSC in splenocytic cells (FACS) [2] | six fold increase in spleen weight found in non-treated animals [3] | animals cured (fraction) (MB49 (bladder) tumors [4]) | cure (MB49 (bladder) tumors [4]) | tumor progression (MB49 (bladder) tumors [4]) | surviving mice that rejected the tumor cells (MB49 (bladder) tumors [1]; re-challenge by tail vein injection of MB49 cells at day 125 post VTP)
Nc1ccn([C@@H]2O[C@H](CO)[C@@H](O)C2(F)F)c(=O)n1 [Gemzar, Gemcitabine] | 15/20 | depletes CD11b+ cells | depleted systemically | almost completely avoided | 0/19 | 0% | slightly delayed tumor progression | 
CCC1c2cc3[n-]c(c(CC(=O)OC)c4nc(cc5[n-]c(cc(n2)C1C)c(C(C)=O)c5C)C(C)C4CCC(=O)[O-])c(C(=O)NCCS(=O)(=O)[O-])c3C.[K+].[K+].[Pd+2] (stereo not drawn) [WST11, Palladium 3^1-oxo-15-methoxycarbonylmethyl-rhodobacteriochlorin 13^1-(2-sulfoethyl) amide dipotassium salt] | 12/19 | depletes CD11b+ cells | depleted systemically | completely prevented | 3/19 | 16% | slightly delayed tumor progression | 70%
